One assay concerns the target IDH1 R132H (Homo sapiens, UniProt O75874, R132H). In words: Assay for IDH1 R132H inhibitors (NADPH/aKG, resazurin detection). In kind it is biochemical. The note with it: enzyme assay of Example 12; read-out: IDH1R132H IC50. The procedure, abridged:
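Read-out is resorufin fluorescence (Ex544/Em590) 5 min after adding a 30 μM resazurin detection mix. Before that, mutant enzyme (0.2 μg/ml in its mix) ran 50 min at room temperature with compound, 8 uM NADPH and 2 mM aKG (mix levels) in Tris pH 7.5 with NaCl, MgCl2, BSA.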
On the technique in general: Resazurin is reduced to fluorescent resorufin, in cell work by metabolically active cells.

Another assay deals with HT1080 cells. Kind of assay: Cellular assay for IDH1m inhibitors: inhibition of 2-HG production (LC-MS, 48 hours) in HT1080 cells. The note with it: Homo sapiens. Format: cell-based. The procedure, abridged: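 The read-out is 2-HG in culture medium, measured by LC-MS after 48 h of compound exposure (0.2% DMSO) in cells plated overnight at 5000 per well in DMEM/10% FBS. IC50 is 50% reduction relative to DMSO wells. Luminescent viability (Cell Titer Glo) followed at 72 h.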

For a further assay, the system named is U87MG cells. In words: Cellular assay for IDH1m inhibitors: inhibition of 2-HG production (LC-MS, 48 hours) in U87MG cells. To be noted: Homo sapiens, U-87 MG. In kind it is cell-based. How it is done:
Cells (e.g., HT1080 or U87MG) and are grown in T125 flasks in DMEM containing 10% FBS, 1× penicillin/streptomycin and 500 ug/mL G418. They are harvested by trypsin and seeded into 96 well white bottom plates at a density of 5000 cell/well in 100 ul/well in DMEM with 10% FBS. No cells are plates in columns 1 and 12. Cells are incubated overnight at 37° C. in 5% CO2. The next day compounds are made up at 2× concentration and 100 ul are added to each cell well. The final concentration of DMSO is 0.2% and the DMSO control wells are plated in row G. The plates are then placed in the incubator for 48 hours. At 48 hours, 100 μl of media is removed from each well and analyzed by LC-MS for 2-HG concentrations. The cell plate is placed back in the incubator for another 24 hours. At 72 hours post compound addition, 10 mL/plate of Promega Cell Titer Glo reagent is thawed and mixed. The cell plate is removed from the incubator and allowed to equilibrate to room temperature. Then 100 ul of reagent is added to each well of media. The cell plate is then placed on an orbital shaker for 10 minutes and then allowed to sit at room temperature for 20 minutes. The plate is then read for luminescence with an integration time of 500 ms.
The IC50 for inhibition of 2-HG production (concentration of test compound to reduce 2HG production by 50% compared to control) in these two cell lines for various compounds of formula I is set forth in Table 4 above.

Where [1] appears, read: HT-1080, inhibition of 2-HG production, HT1080 cells, read-out: HT1080 IC50.
[2] abbreviates: inhibition of 2-HG production, U87R132H cells, read-out: U87R132H IC50.

As usually defined, the IC50 is the concentration at which inhibition is half-maximal.

Structures are written as SMILES. Where two headings read alike, the source gives them in different places.

Chain of IDH1 R132H (O75874 whole entry R132H): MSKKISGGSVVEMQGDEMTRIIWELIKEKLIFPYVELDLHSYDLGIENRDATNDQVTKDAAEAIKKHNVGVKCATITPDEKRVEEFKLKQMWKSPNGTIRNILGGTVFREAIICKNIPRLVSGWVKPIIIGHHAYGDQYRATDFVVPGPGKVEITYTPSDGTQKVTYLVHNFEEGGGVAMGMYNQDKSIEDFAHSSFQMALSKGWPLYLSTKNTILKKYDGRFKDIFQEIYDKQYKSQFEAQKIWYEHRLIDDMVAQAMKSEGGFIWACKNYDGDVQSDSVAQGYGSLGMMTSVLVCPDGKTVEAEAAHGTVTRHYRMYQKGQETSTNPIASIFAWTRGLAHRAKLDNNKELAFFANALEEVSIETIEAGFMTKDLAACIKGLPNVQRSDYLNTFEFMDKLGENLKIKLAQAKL

For the molecule `COCCC(=O)N1CCN(c2nc(C3CC3)c(-c3c(C)noc3C)c(C)c2C#N)C[C@H]1C` [Compound 351, (R)-6-cyclopropyl-5-(3,5-dimethyl-isoxazol-4-yl)-2-[4-(3-methoxy-propionyl)-3-methyl-piperazin-1-yl]-4-methyl-nicotinonitrile], the IC50 at IDH1 R132H was less than 500 nM; with HT1080 cells (setting [1]), 1 to 10 µM; with U87MG cells (setting [2]) it was 0.5 to 1 µM.

For the molecule `C=Cc1cc(-c2cc(C#N)c(N3CCN(C(=O)CCO)[C@H](C4CC4)C3)nc2C2CC2)ccn1` [Compound 527], the results for the IC50 on IDH1 R132H, in the assay on HT1080 cells (setting [1]) and with U87MG cells (setting [2]) were less than 500 nM, less than 0.5 µM and less than 0.5 µM, respectively.

On to `C=Cc1cc(-c2cc(C#N)c(N3CCN(C(=O)CC(C)(C)O)[C@H](C4CC4)C3)nc2C2CC2)ccn1` [Compound 561, (R)-2-cyclopropyl-6-(3-cyclopropyl-4-(3-hydroxy-3-methylbutanoyl)piperazin-1-yl)-2′-vinyl-3,4′-bipyridine-5-carbonitrile], for which the IC50 at IDH1 R132H was less than 500 nM; in the assay on HT1080 cells (setting [1]) it was less than 0.5 µM; in the assay on U87MG cells (setting [2]), less than 0.5 µM.

`C=Cc1ccc2c(-c3cc(C#N)c(N4CCN(C(=O)CC(F)(F)F)[C@H](C5CC5)C4)nc3C3CC3)cccc2n1` [Compound 551, (R)-6-cyclopropyl-2-(3-cyclopropyl-4-(3,3,3-trifluoropropanoyl)piperazin-1-yl)-5-(2-vinylquinolin-5-yl)nicotinonitrile]: the IC50 is less than 500 nM on IDH1 R132H, less than 0.5 µM with HT1080 cells (setting [1]) and less than 0.5 µM in the assay with U87MG cells (setting [2]).

For `COCCC(=O)N1CCN(c2nc(C3CC3)c(-c3ccc(F)c(C#N)c3)c(C)c2C#N)C[C@H]1C` [Compound 321, (R)-5-(3-cyano-4-fluoro-phenyl)-6-cyclopropyl-2-[4-(3-methoxy-propionyl)-3-methyl-piperazin-1-yl]-4-methyl-nicotinonitrile], the figures for the IC50 at IDH1 R132H, in the assay on HT1080 cells (setting [1]) and with U87MG cells (setting [2]) were less than 500 nM, 0.5 to 1 µM and less than 0.5 µM, respectively.

For `C=CC(=O)Nc1cccc(-c2cc(C#N)c(N3CCN(C(=O)C4CC4)[C@H](C4CC4)C3)nc2C2CC2)c1` [Compound 454, (R)—N-(3-(5-cyano-6-(4-(cyclopropanecarbonyl)-3-cyclopropylpiperazin-1-yl)-2-cyclopropylpyridin-3-yl)phenyl)acrylamide], the IC50 on IDH1 R132H was less than 500 nM; in the assay with HT1080 cells (setting [1]), less than 0.5 µM; with U87MG cells (setting [2]), less than 0.5 µM.

For `C=Cc1ccc2ccc(-c3cc(C#N)c(N4CCN(C(=O)CCO)[C@H](C5CC5)C4)nc3C3CC3)cc2n1` [Compound 720, (R)-6-cyclopropyl-2-(3-cyclopropyl-4-(3-hydroxypropanoyl)piperazin-1-yl)-5-(2-vinylquinolin-7-yl) nicotinonitrile], the IC50 was less than 500 nM at IDH1 R132H, less than 0.5 µM with HT1080 cells (setting [1]) and less than 0.5 µM in the assay with U87MG cells (setting [2]).

In the case of `C=Cc1cc(-c2cc(C#N)c(N3CCN(C(=O)CCOC)[C@H](C)C3)nc2C2CC2)ncn1` [Compound 597, (R)-6-cyclopropyl-2-(4-(3-methoxypropanoyl)-3-methylpiperazin-1-yl)-5-(6-vinylpyrimidin-4-yl)nicotinonitrile], the figures for the IC50 at IDH1 R132H, in the assay with HT1080 cells (setting [1]) and in the assay with U87MG cells (setting [2]) were less than 500 nM, less than 0.5 µM and less than 0.5 µM, respectively.

For `COCCC(=O)N1CCN(c2nc(C3CC3)c(O[C@@H](C)c3ccccc3)cc2C#N)C[C@H]1C` [Compound 303, 6-cyclopropyl-2-((R)-4-(3-methoxypropanoyl)-3-methylpiperazin-1-yl)-5-((S)-1-phenylethoxy)nicotinonitrile], the IC50 is less than 500 nM at IDH1 R132H, 1 to 10 µM with HT1080 cells (setting [1]) and 1 to 10 µM with U87MG cells (setting [2]).

In the case of `C=Cc1cc(-c2cc(C#N)c(N3CCN(C(=O)CCOP(=O)(O)O)[C@H](C4CC4)C3)nc2C2CC2)ccn1` [Compound 810, Sodium (R)-3-(4-(5-cyano-2-cyclopropyl-2′-vinyl-[3,4′-bipyridin]-6-yl)-2-cyclopropylpiperazin-1-yl)-3-oxopropyl phosphate], the IC50 at IDH1 R132H is 500 to 1000 nM; in the assay with HT1080 cells (HT-1080, read-out: HT1080 IC50 (μM)), less than 0.5 µM; in the assay with U87MG cells (read-out: U87R132H IC50 (μM)), less than 0.5 µM.

As for `COCCC(=O)N1CCN(c2nc(C3CC3)c(-c3ccc4nc(N)sc4c3)cc2C#N)C[C@H]1C` [Compound 417, (R)-5-(2-amino-benzothiazol-6-yl)-6-cyclopropyl-2-[4-(3-methoxy-propionyl)-3-methyl-piperazin-1-yl]-nicotinonitrile], the IC50 on IDH1 R132H was less than 500 nM; with HT1080 cells (setting [1]), less than 0.5 µM; in the assay on U87MG cells (setting [2]) it was less than 0.5 µM.

`C=Cc1cc(Oc2cc(C#N)c(N3CCN(C(=O)CCO)[C@H](C4CC4)C3)nc2C2CC2)ccn1` [Compound 692, (R)-6-cyclopropyl-2-(3-cyclopropyl-4-(3-hydroxypropanoyl)piperazin-1-yl)-5-(2-vinylpyridin-4-yloxy)nicotinonitrile]: the figures for the IC50 at IDH1 R132H, in the assay with HT1080 cells (setting [1]) and with U87MG cells (setting [2]) were less than 500 nM, less than 0.5 µM and less than 0.5 µM, respectively.

Consider `COCCC(=O)N1CCN(c2nc(C3CC3)c(O[C@H](C)c3ccccc3)cc2C#N)C[C@H]1C` [Compound 307, 6-cyclopropyl-2-((R)-4-(3-methoxypropanoyl)-3-methylpiperazin-1-yl)-5-((R)-1-phenylethoxy)nicotinonitrile], for which the IC50 on IDH1 R132H was less than 500 nM; in the assay with HT1080 cells (setting [1]) it was 1 to 10 µM; with U87MG cells (setting [2]), 1 to 10 µM.

For `COCCC(=O)N1CCN(c2nc(C3CC3)c(-c3cccc(-c4cc[nH]n4)c3)cc2C#N)C[C@H]1C` [Compound 363, (R)-6-cyclopropyl-2-[4-(3-methoxy-propionyl)-3-methyl-piperazin-1-yl]-5-[3-(1H-pyrazol-3-yl)-phenyl]-nicotinonitrile], the values for the IC50 on IDH1 R132H, with HT1080 cells (setting [1]) and in the assay with U87MG cells (setting [2]) were less than 500 nM, 1 to 10 µM and 0.5 to 1 µM, respectively.

Take `C=Cc1cc(-c2c(C3CC3)nc(N3CCN(C(=O)CCO)[C@H](C4CC4)C3)c(C#N)c2C)cnn1` [Compound 776, (R)-6-cyclopropyl-2-(3-cyclopropyl-4-(3-hydroxypropanoyl)piperazin-1-yl)-4-methyl-5-(6-vinylpyridazin-4-yl)nicotinonitrile]: the IC50 is less than 500 nM on IDH1 R132H, less than 0.5 µM in the assay with HT1080 cells (setting [1]) and less than 0.5 µM with U87MG cells (setting [2]).

Turning to `C=Cc1cnc2c(-c3cc(C#N)c(N4CCN(C(=O)CCOC)[C@H](C)C4)nc3C3CC3)cccc2n1` [Compound 579, (R)-6-cyclopropyl-2-(4-(3-methoxypropanoyl)-3-methylpiperazin-1-yl)-5-(2-vinylquinoxalin-5-yl)nicotinonitrile], the IC50 on IDH1 R132H is less than 500 nM; with HT1080 cells (setting [1]) it was less than 0.5 µM; in the assay on U87MG cells (setting [2]), less than 0.5 µM.

As to `C=Cc1cnnc(-c2cc(C#N)c(N3CCN(C(=O)C4CC4)[C@H](C4CC4)C3)nc2C2CC2)c1` [Compound 696, (R)-2-(4-(cyclopropanecarbonyl)-3-cyclopropylpiperazin-1-yl)-6-cyclopropyl-5-(5-vinylpyridazin-3-yl)nicotinonitrile], the IC50 on IDH1 R132H is less than 500 nM; with HT1080 cells (setting [1]), less than 0.5 µM; in the assay on U87MG cells (setting [2]) it was less than 0.5 µM.

Turning to `C=Cc1cc(-c2cc(C#N)c(N3CCN(C(=O)CCCOC)[C@H](C4CC4)C3)nc2C2CC2)ccn1` [Compound 747, (R)-2-cyclopropyl-6-(3-cyclopropyl-4-(4-methoxybutanoyl)piperazin-1-yl)-2′-vinyl-3,4′-bipyridine-5-carbonitrile], the IC50 on IDH1 R132H is less than 500 nM; with HT1080 cells (setting [1]), less than 0.5 µM; with U87MG cells (setting [2]) it was less than 0.5 µM.
